Square brackets hold non-standard residues; d marks the D form. Peptide text beside a SMILES is read from it. αMeF = C[C@](N)(Cc1ccccc1)C(=O)O; 4Pal = N[C@@H](Cc1ccncc1)C(=O)O; Aib = CC(C)(N)C(=O)O

The values that follow come from patent US10087229B2, “Peptide compound” (TAKEDA PHARMACEUTICAL COMPANY LIMITED, priority 2013, dated 2018).

This experiment relates to male C57BL/6J mouse. In words: 2-days continuous subcutaneous administration test (feeding suppressive activity). Format: in vivo. To be noted: 10 nmol/kg/day, subcutaneous Alzet pump, 2-days cumulative food consumption, control (solvent alone) = 0%. How it is done:
2-Days Continuous Subcutaneous Administration Test
The feeding suppressive activity of a test compound was examined by the method described below.
The test compound was dissolved in a solvent (50% DMSO) so that sustained release would occur at 10 nmol/kg/day, and the solution was filled in the Alzet Pump (DURECT Corporation, model: 1003D). The pump thus filled with the solution to be administered was immersed in physiological saline for priming, and then used. The pump was embedded by the following method. Each male C57BL/6J mouse at 8-9 weeks of age (20-26° C., allowed to take food and water ad libitum; 12-hour bright-12-hour dark cycle) was anesthetized; the skin in the upper back thereof was incised, and the above-mentioned pump was embedded subcutaneously; the incision was sutured. After weighing, this mouse was returned to the rearing cage (reared alone), and given previously weighed food; food consumption as of 2 days after the start of administration was measured. The food consumption was calculated by subtracting the amount of remaining food from the weight of the food given on the day of the start of administration. When the food consumption of a control group receiving administration of the solvent alone was regarded as a suppression rate of 0%, the feeding suppressive activity of each test compound was evaluated on the basis of 2-days cumulative food consumption after the start of administration. The food intake suppression rate (%) of the test compound was defined as (Food consumption of the control group−Food consumption of the test compound-administered group)/Food consumption of the control group×100.
For `CC(C)C[C@H](NC(=O)[C@H](CC(C)C)NC(=O)[C@H](Cc1c[nH]c2ccccc12)NC(=O)[C@H](CCCCN)NC(=O)[C@@H](NC(=O)[C@H](Cc1ccccc1)NC(=O)[C@H](CCC(=O)O)NC(=O)[C@H](C)NC(=O)[C@H](CCC(N)=O)NC(=O)[C@H](C)NC(=O)[C@H](CCC(N)=O)NC(=O)[C@H](CCCCN)NC(=O)[C@H](CC(=O)O)NC(=O)[C@H](CC(C)C)NC(=O)C(C)(C)NC(=O)[C@H](CCCCN)NC(=O)C(C)(C)NC(=O)[C@H](Cc1ccc(O)cc1)NC(=O)[C@H](CC(=O)O)NC(=O)[C@H](CO)NC(=O)[C@@H](NC(=O)[C@](C)(Cc1ccccc1)NC(=O)[C@@H](NC(=O)CNC(=O)[C@H](CCC(=O)O)NC(=O)C(C)(C)NC(=O)[C@@H](N)Cc1ccc(O)cc1)[C@@H](C)O)[C@@H](C)O)C(C)C)C(=O)N[C@@H](CCCCN)C(=O)NCC(=O)NCC(=O)N1CCC[C@H]1C(=O)N[C@@H](CO)C(=O)N[C@@H](CO)C(=O)NCC(=O)N[C@@H](C)C(=O)N1CCC[C@H]1C(=O)N1CCC[C@H]1C(=O)N1CCC[C@H]1C(=O)N[C@@H](CO)C(=O)N[C@@H](CCCCN)C(N)=O` [Example 9] (H-Y[Aib]EGT[αMeF]TSDY[Aib]K[Aib]LDKQAQAEFVKWLLKGGPSSGAPPPSK-NH2), the “Food intake suppression (%)” value is listed as 45.23%.
Then `CC(C)C[C@H](NC(=O)[C@H](CC(C)C)NC(=O)[C@H](Cc1c[nH]c2ccccc12)NC(=O)[C@H](CCCCN)NC(=O)[C@@H](NC(=O)[C@H](Cc1ccccc1)NC(=O)[C@H](CCC(=O)O)NC(=O)[C@H](C)NC(=O)[C@H](CCC(N)=O)NC(=O)[C@H](C)NC(=O)[C@H](CCC(N)=O)NC(=O)[C@H](CCCCN)NC(=O)[C@H](CC(=O)O)NC(=O)[C@H](CC(C)C)NC(=O)C(C)(C)NC(=O)[C@H](C)NC(=O)C(C)(C)NC(=O)[C@H](Cc1ccc(O)cc1)NC(=O)[C@H](CC(=O)O)NC(=O)[C@H](CO)NC(=O)[C@@H](NC(=O)[C@](C)(Cc1ccccc1)NC(=O)[C@@H](NC(=O)CNC(=O)[C@H](CCC(=O)O)NC(=O)C(C)(C)NC(=O)[C@@H](N)Cc1ccc(O)cc1)[C@@H](C)O)[C@@H](C)O)C(C)C)C(=O)N[C@@H](CCCCN)C(=O)NCC(=O)NCC(=O)N1CCC[C@H]1C(=O)N[C@@H](CO)C(=O)N[C@@H](CO)C(=O)NCC(=O)N[C@@H](C)C(=O)N1CCC[C@H]1C(=O)N1CCC[C@H]1C(=O)N1CCC[C@H]1C(=O)N[C@@H](CO)C(=O)N[C@@H](CCCCN)C(N)=O` [Example 10] (H-Y[Aib]EGT[αMeF]TSDY[Aib]A[Aib]LDKQAQAEFVKWLLKGGPSSGAPPPSK-NH2), with 62.04%; and `CC(C)C[C@H](NC(=O)[C@H](CC(C)C)NC(=O)[C@H](Cc1c[nH]c2ccccc12)NC(=O)[C@H](CCCCN)NC(=O)[C@@H](NC(=O)[C@H](Cc1ccccc1)NC(=O)[C@H](CCC(=O)O)NC(=O)[C@H](C)NC(=O)[C@H](CCC(N)=O)NC(=O)[C@H](C)NC(=O)[C@H](CCC(N)=O)NC(=O)[C@H](CCCCN)NC(=O)[C@H](CC(=O)O)NC(=O)[C@H](CC(C)C)NC(=O)C(C)(C)NC(=O)[C@H](Cc1ccccc1)NC(=O)C(C)(C)NC(=O)[C@H](Cc1ccc(O)cc1)NC(=O)[C@H](CC(=O)O)NC(=O)[C@H](CO)NC(=O)[C@@H](NC(=O)[C@](C)(Cc1ccccc1)NC(=O)[C@@H](NC(=O)CNC(=O)[C@H](CCC(=O)O)NC(=O)C(C)(C)NC(=O)[C@@H](N)Cc1ccc(O)cc1)[C@@H](C)O)[C@@H](C)O)C(C)C)C(=O)N[C@@H](CCCCN)C(=O)NCC(=O)NCC(=O)N1CCC[C@H]1C(=O)N[C@@H](CO)C(=O)N[C@@H](CO)C(=O)NCC(=O)N[C@@H](C)C(=O)N1CCC[C@H]1C(=O)N1CCC[C@H]1C(=O)N1CCC[C@H]1C(=O)N[C@@H](CO)C(=O)N[C@@H](CCCCN)C(N)=O` [Example 11] (H-Y[Aib]EGT[αMeF]TSDY[Aib]F[Aib]LDKQAQAEFVKWLLKGGPSSGAPPPSK-NH2), with 49.99%; and `CC(C)C[C@H](NC(=O)[C@H](CC(C)C)NC(=O)[C@H](Cc1c[nH]c2ccccc12)NC(=O)[C@H](CCCCN)NC(=O)[C@@H](NC(=O)[C@H](Cc1ccccc1)NC(=O)[C@H](CCC(=O)O)NC(=O)[C@H](C)NC(=O)[C@H](CCC(N)=O)NC(=O)[C@H](C)NC(=O)[C@H](CCC(N)=O)NC(=O)[C@H](CCCCN)NC(=O)[C@H](CC(=O)O)NC(=O)[C@H](CC(C)C)NC(=O)C(C)(C)NC(=O)[C@H](Cc1ccncc1)NC(=O)C(C)(C)NC(=O)[C@H](Cc1ccc(O)cc1)NC(=O)[C@H](CC(=O)O)NC(=O)[C@H](CO)NC(=O)[C@@H](NC(=O)[C@](C)(Cc1ccccc1)NC(=O)[C@@H](NC(=O)CNC(=O)[C@H](CCC(=O)O)NC(=O)C(C)(C)NC(=O)[C@@H](N)Cc1ccc(O)cc1)[C@@H](C)O)[C@@H](C)O)C(C)C)C(=O)N[C@@H](CCCCN)C(=O)NCC(=O)NCC(=O)N1CCC[C@H]1C(=O)N[C@@H](CO)C(=O)N[C@@H](CO)C(=O)NCC(=O)N[C@@H](C)C(=O)N1CCC[C@H]1C(=O)N1CCC[C@H]1C(=O)N1CCC[C@H]1C(=O)N[C@@H](CO)C(=O)N[C@@H](CCCCN)C(N)=O` [Example 12] (H-Y[Aib]EGT[αMeF]TSDY[Aib][4Pal][Aib]LDKQAQAEFVKWLLKGGPSSGAPPPSK-NH2), with 55.07%.
Then `CC[C@H](C)[C@H](NC(=O)C(C)(C)NC(=O)[C@H](Cc1ccc(O)cc1)NC(=O)[C@H](CC(=O)O)NC(=O)[C@H](CO)NC(=O)[C@@H](NC(=O)[C@](C)(Cc1ccccc1)NC(=O)[C@@H](NC(=O)CNC(=O)[C@H](CCC(=O)O)NC(=O)C(C)(C)NC(=O)[C@@H](N)Cc1ccc(O)cc1)[C@@H](C)O)[C@@H](C)O)C(=O)N[C@@](C)(Cc1ccccc1)C(=O)N[C@@H](CC(C)C)C(=O)N[C@@H](CC(=O)O)C(=O)N[C@@H](CCCCN)C(=O)N[C@@H](CCC(N)=O)C(=O)N[C@@H](C)C(=O)N[C@@H](CCC(N)=O)C(=O)N[C@@H](C)C(=O)N[C@@H](CCC(=O)O)C(=O)N[C@@H](Cc1ccccc1)C(=O)N[C@H](C(=O)N[C@@H](CCCCN)C(=O)N[C@@H](Cc1c[nH]c2ccccc12)C(=O)N[C@@H](CC(C)C)C(=O)N[C@@H](CC(C)C)C(=O)N[C@@H](CCCCN)C(=O)NCC(=O)NCC(=O)N1CCC[C@H]1C(=O)N[C@@H](CO)C(=O)N[C@@H](CO)C(=O)NCC(=O)N[C@@H](C)C(=O)N1CCC[C@H]1C(=O)N1CCC[C@H]1C(=O)N1CCC[C@H]1C(=O)N[C@@H](CO)C(=O)N[C@@H](CCCCN)C(N)=O)C(C)C` [Example 13] (H-Y[Aib]EGT[αMeF]TSDY[Aib]I[αMeF]LDKQAQAEFVKWLLKGGPSSGAPPPSK-NH2), with 57.12%.
